Results reported in patent publication US20220177587A1, “METHODS AND USES OF VARIANT CD80 FUSION PROTEINS AND RELATED CONSTRUCTS” (Alpine Immune Sciences, Inc., priority 2018, published 2022).

What was measured:
Pan T cells = assay: Primary T cell stimulation assay with K562/OKT3 +/- PD-L1 (IL-2, IFN-gamma, proliferation); assay type: cell-based, human; parameters: IL-2 release, K562/OKT3 (No PD-L1), CD80-IgV Fc (effector), 1 nM / IL-2 release, K562/OKT3 (No PD-L1), CD80-IgV Fc (effector), 10 nM / IL-2 release, K562/OKT3 (No PD-L1), CD80-IgV Fc (effector), 100 nM / IL-2 release, K562/OKT3/PD-L1, CD80-IgV Fc (inert), 1 nM / IL-2 release, K562/OKT3/PD-L1, CD80-IgV Fc (inert), 10 nM / IL-2 release, K562/OKT3/PD-L1, CD80-IgV Fc (inert), 100 nM: unit not given here; conditions: 72 hr; for IL-2 release, K562/OKT3 (No PD-L1), CD80-IgV Fc (effector), 1 nM / IL-2 release, K562/OKT3 (No PD-L1), CD80-IgV Fc (effector), 10 nM / IL-2 release, K562/OKT3 (No PD-L1), CD80-IgV Fc (effector), 100 nM: Pan T cells + K562/OKT3 (no PD-L1), effector Fc format (controls as labelled)
Method: IFN-gamma, IL-2 and proliferation were determined after 72 hr. incubation.

human pan T cells = assay: Anti-CD3 coimmobilization assay, IFN-gamma; assay type: cell-based; conditions: Table E33; culture supernatant, 3 days
Method: Costimulatory bioactivity of CD80 fusion variants was determined in anti-CD3 coimmobilization assays. 1 nM or 4 nM mouse anti-human CD3 (OKT3, Biolegends, USA) was diluted in PBS with 1 nM to 80 nM rCD80.Fc variant proteins. This mixture was added to tissue culture treated flat bottom 96-well plates (Corning, USA) overnight to facilitate adherence of the stimulatory proteins to the wells of the plate. The next day, unbound protein was washed off the plates and 100,000 purified human pan T cells (BenTech Bio, US) or human T cell clone BC3 (Astarte Biologics, USA) were added to each well in a final volume of 200 μl of Ex-Vivo 15 media (Lonza, Switzerland). Cells were cultured 3 days before harvesting culture supernatants and measuring human IFN-gamma levels with Duoset ELISA kit (R&D Systems, USA) as described above.

allogeneic CD4+ T cells = assay: Mixed Lymphocyte Reaction (MLR), IFN-gamma; assay type: cell-based, human; conditions: Table E33; culture supernatant
Method: Soluble rCD80.Fc bioactivity was tested in a human Mixed Lymphocyte Reaction (MLR). Human primary dendritic cells (DC) were generated by culturing monocytes isolated from PBMC (BenTech Bio, USA) in vitro for 7 days with 500U/ml rIL-4 (R&D Systems, USA) and 250 U/ml rGM-CSF (R&D Systems, USA) in Ex-Vivo 15 media (Lonza, Switzerland). 10,000 matured DC and 100,000 purified allogeneic CD4+ T cells (BenTech Bio, USA) were co-cultured with variant CD80 Fc fusion proteins and controls in 96 well round bottom plates in 200 μl final volume of Ex-Vivo 15 media. On day 5, IFN-gamma secretion in culture supernatants was analyzed using the Human IFN-gamma Duoset ELISA kit (R&D Systems, USA). Optical density was measured by VMax ELISA Microplate Reader (Molecular Devices, USA) and quantitated against titrated rIFN-gamma standard included in the IFN-gamma Duo-set kit (R&D Systems, USA).

[1] = test system: primary human pan T cells; assay: Cytokine production following PD-L1-dependent costimulation; assay type: cell-based; conditions: mitomycin-c treated K562/OKT3/PDL1 aAPC; FIG. 6
MC38 hPD-L1 tumor cells = assay: MC38 hPD-L1 tumor model in C57BL/6 mice; assay type: in vivo, mouse
Method: Mouse MC38 tumor cells were stably transfected with human PD-L1 (MC38 hPD-L1) and implanted subcutaneously into C57BU6 mice. […] Tumor volume was tracked over time.
70 female C57CL/6 mice, containing similar tumor volumes of approximately 50-51 mm^3, following implantation of MC38 hPD-L1 tumor cells, were staged and divided into 5 treatment groups containing 14 mice each. […] Tumor volumes were measured on days 7, 10, and 12. On day 13, 5 animals were sacrificed for analysis as described in the sections below. Tumor measurements resumed for the remaining 9 mice for each group on days 17, 20 and 27. On days 26, 28, and 31, the animals in Group 1 (Fc isotype control) received an intratumoral injection of 100 μg E35D/M47L CD80-IgV-Fc.
95 female C57BU6 mice were implanted with MC38 hPD-L1 tumor cells. The tumors were staged on Day 7, and 77 mice with similar tumor volumes of approximately 60 mm^3 were divided into 7 treatment groups containing 11 mice each.
On day 49, tumor-free mice, from Groups 3, 4, 6, and 7, and 2 naïve C57CL/6 mice were re-challenged with an additional injection of hPD-L1 MC38 cells. Tumor volumes were measured on days 56, 59, and 63. The results are depicted in FIG. 13. […] At day 59, 8/8 mice from Group 3, 1/2 mice from Group 4, 1/1 mouse from Group 6, and 2/2 mice from Group 7 were tumor-free, and by day 63, all mice in Group 3, Group 4, Group 6, and Group 7 were tumor-free.
75 animals were staged into 3 treatment groups 7 days after implantation with hPD-L1 MC38 tumor cells. […] Tumor volumes were measured every 3-4 days, from Day 11 until Day 35. 3 days after the 1st dose, 2nd dose and 3rd dose, 4 mice from each group were sacrificed for tumor and LN analyses, leaving 13 mice for tumor volume measurements throughout the study period.

[2] = test system: huPD-L1 transduced MC38 tumor cells; assay: In vitro cytotoxicity to huPD-L1 transduced MC38 tumor cells; assay type: cell-based, mouse; conditions: 100 nM or 10 nM; 72 hours; human pan T cells 1:5; FIG. 17
Method: This Example describes the assessment of in vitro cytotoxicity of huPD-L1 transduced MC38 tumor cells. MC38 tumor cells, non-transduced or transduced with huPD-L1, were treated with Mitomycin-C and plated with human pan T cells labelled with CFSE at a 1:5 ratio. […] As a control, an exemplary anti-PD-1 antibody nivolumab or an Fc (inert) only control also were assessed. Cells were then harvested and stained with 7-AAD viability dye. After acquiring samples on a flow cytometer, the percentage of dead cells was calculated using Flowjo analysis by gating on 7-AAD+ cells in the CFSE− gate.

[3] = 3 injections of 100 μg on Days 8, 10 and 12
[4] = re-challenged on day 49 with hPD-L1 MC38 cells

## WT CD80 ECD-Fc (effector)
Pan T cells; 1 nM
  IL-2 release, K562/OKT3 (No PD-L1), CD80-IgV Fc (effector), 1 nM: 11434
Pan T cells; 10 nM
  IL-2 release, K562/OKT3 (No PD-L1), CD80-IgV Fc (effector), 10 nM: 20185
Pan T cells; 100 nM
  IL-2 release, K562/OKT3 (No PD-L1), CD80-IgV Fc (effector), 100 nM: 23118
Pan T cells; Pan T cells + K562/OKT3/PD-L1, inert Fc format (controls as labelled), 1 nM
  IL-2 release, K562/OKT3/PD-L1, CD80-IgV Fc (inert), 1 nM: 507
Pan T cells; Pan T cells + K562/OKT3/PD-L1, inert Fc format (controls as labelled), 10 nM
  IL-2 release, K562/OKT3/PD-L1, CD80-IgV Fc (inert), 10 nM: 3114
Pan T cells; Pan T cells + K562/OKT3/PD-L1, inert Fc format (controls as labelled), 100 nM
  IL-2 release, K562/OKT3/PD-L1, CD80-IgV Fc (inert), 100 nM: 8393

## WT CD80 IgV-Fc (effector)
Pan T cells; 1 nM
  IL-2 release, K562/OKT3 (No PD-L1), CD80-IgV Fc (effector), 1 nM: 7167
Pan T cells; 10 nM
  IL-2 release, K562/OKT3 (No PD-L1), CD80-IgV Fc (effector), 10 nM: 7123
Pan T cells; 100 nM
  IL-2 release, K562/OKT3 (No PD-L1), CD80-IgV Fc (effector), 100 nM: 6203

## WTCD80
Human pan T cells
  Coimmobilization with anti-CD3 IFN-gamma: 509 pg/mL
Allogeneic CD4+ T cells
  MLR IFN-gamma levels: 19211 pg/mL

## durvalumab [reference compound]
[1]
  IL-2 secretion in culture supernatants: IL-2 production was not observed
MC38 hPD-L1 tumor cells; 100 μg on days 7, 9 and 11, 11 mice per group
  mice with no detectable tumors (tumor-free) upon completion of the study: 2 mice
MC38 hPD-L1 tumor cells; [3]
  tumor-free mice at day 35: 3/13
  tumor-free mice on Day 18: 3/13
MC38 hPD-L1 tumor cells; [4]
  tumor-free mice after re-challenge, day 59: 2/2
  tumor-free mice after re-challenge, day 63: tumor-free

## nivolumab [reference compound]
[2]
  cytotoxicity (percentage of dead 7-AAD+ tumor cells): cytotoxic activity was not observed
